Reference: publication PMC6442119, “The antitumor activity of CYB-L10, a human topoisomerase IB catalytic inhibitor” (Journal of Enzyme Inhibition and Medicinal Chemistry, 2019)

Columns and labels:
Test in all cases: NCI60 assay
Assay type in all cases: cell-based
[1] = tested on: 786-0; conditions: Homo sapiens; Renal cancer, 786-0, 48 h
Procedure: (§1) CYB-L10 was tested using the protocols by the NCI, which has been described previously. […] The overall antiproliferative potential is quantified as a mean-graph midpoint (MGM). […] It was selected and submitted to National Cancer Institute (NCI, USA) for a developmental therapeutics assay against the 60 clinical tumor cell lines representing nine tissue types (NCI60)[23–25]. The tumor cells were incubated with CYB-L10 for 48 h and stained with sulphorhodamine B dye. Cell growth inhibition (GI50) was calculated relative to the control without compound.

[2] = tested on: A498; conditions: Homo sapiens; Renal cancer, A498, 48 h
Procedure: as §1

[3] = tested on: A549/ATCC; conditions: Homo sapiens, Non-small cell lung cancer, 48 h
Procedure: as §1

[4] = tested on: ACHN; conditions: Homo sapiens, Renal cancer, 48 h
Procedure: as §1

[5] = tested on: BT-549; conditions: Homo sapiens; Breast cancer, BT-549, 48 h
Procedure: as §1

[6] = tested on: CCRF-CEM; conditions: Homo sapiens, Leukemia, 48 h
Procedure: as §1

[7] = tested on: COLO 205; conditions: Homo sapiens; Colon cancer, COLO 205, 48 h
Procedure: as §1

[8] = tested on: EKVX; conditions: Homo sapiens, Non-small cell lung cancer, 48 h
Procedure: as §1

[9] = tested on: HCC-2998; conditions: Homo sapiens; Colon cancer, HCC-2998, 48 h
Procedure: as §1

[10] = tested on: HCT-15; conditions: Homo sapiens; Colon cancer, HCT-15, 48 h
Procedure: as §1

[11] = tested on: HCT116; conditions: Homo sapiens, HCT-116, Colon cancer, HCT116, 48 h
Procedure: as §1

[12] = tested on: HOP-62; conditions: Homo sapiens; Non-small cell lung cancer, HOP-62, 48 h
Procedure: as §1

[13] = tested on: K-562; conditions: Homo sapiens, K562; Leukemia, K-562, 48 h
Procedure: as §1

[14] = tested on: KM12; conditions: Homo sapiens; Colon cancer, KM12, 48 h
Procedure: as §1

[15] = tested on: LOX IMVI; conditions: Homo sapiens, Melanoma, 48 h
Procedure: as §1

[16] = tested on: MALME-3M; conditions: Homo sapiens, Melanoma, 48 h
Procedure: as §1

[17] = tested on: MDA-MB-231/ATCC; conditions: Homo sapiens, Breast cancer, 48 h
Procedure: as §1

[18] = tested on: MDA-MB-435; conditions: Homo sapiens; Melanoma, MDA-MB-435, 48 h
Procedure: as §1

[19] = tested on: MDA-MB-468; conditions: Homo sapiens; Breast cancer, MDA-MB-468, 48 h
Procedure: as §1

[20] = tested on: MOLT-4; conditions: Homo sapiens; Leukemia, MOLT-4, 48 h
Procedure: as §1

[21] = tested on: NCI-H23; conditions: Homo sapiens; Non-small cell lung cancer, NCI-H23, 48 h
Procedure: as §1

[22] = tested on: NCI-H322M; conditions: Homo sapiens, Non-small cell lung cancer, 48 h
Procedure: as §1

[23] = tested on: NCI-H460; conditions: Homo sapiens; Non-small cell lung cancer, NCI-H460, 48 h
Procedure: as §1

[24] = tested on: NCI-H522; conditions: Homo sapiens; Non-small cell lung cancer, NCI-H522, 48 h
Procedure: as §1

[25] = tested on: NCI/ADR-RES; conditions: Homo sapiens, Ovarian cancer, 48 h
Procedure: as §1

[26] = tested on: OVCAR-3; conditions: Homo sapiens; Ovarian cancer, OVCAR-3, 48 h
Procedure: as §1

[27] = tested on: OVCAR-4; conditions: Homo sapiens; Ovarian cancer, OVCAR-4, 48 h
Procedure: as §1

[28] = tested on: RPMI-8226; conditions: Homo sapiens; Leukemia, RPMI-8226, 48 h
Procedure: as §1

[29] = tested on: RXF 393; conditions: Homo sapiens; Renal cancer, RXF 393, 48 h
Procedure: as §1

[30] = tested on: SF-295; conditions: Homo sapiens; CNS cancer, SF-295, 48 h
Procedure: as §1

[31] = tested on: SF-539; conditions: Homo sapiens; CNS cancer, SF-539, 48 h
Procedure: as §1

[32] = tested on: SK-MEL-28; conditions: Homo sapiens; Melanoma, SK-MEL-28, 48 h
Procedure: as §1

[33] = tested on: SK-MEL-2; conditions: Homo sapiens; Melanoma, SK-MEL-2, 48 h
Procedure: as §1

[34] = tested on: SK-MEL-5; conditions: Homo sapiens; Melanoma, SK-MEL-5, 48 h
Procedure: as §1

[35] = tested on: SK-OV-3; conditions: Homo sapiens; Ovarian cancer, SK-OV-3, 48 h
Procedure: as §1

[36] = tested on: SNB-19; conditions: Homo sapiens; CNS cancer, SNB-19, 48 h
Procedure: as §1

[37] = tested on: SW-620; conditions: Homo sapiens; Colon cancer, SW-620, 48 h
Procedure: as §1

[38] = tested on: T-47D; conditions: Homo sapiens, T47D, Breast cancer, 48 h
Procedure: as §1

[39] = tested on: U251; conditions: Homo sapiens, U-251; CNS cancer, U251, 48 h
Procedure: as §1

[40] = tested on: UACC-62; conditions: Homo sapiens; Melanoma, UACC-62, 48 h
Procedure: as §1

O=C1c2cccnc2C(=O)c2c1c(C(=O)OCCN1CCOCC1)c1ccccn21 [CYB-L10]
GI50 [1]: 29 nM | GI50 [2]: 34.3 nM | GI50 [3]: 20.5 nM | GI50 [4]: < 10 nM | GI50 [5]: 55.8 nM | GI50 [6]: 379 nM | GI50 [7]: 137 nM | GI50 [8]: 1360 nM | GI50 [9]: 252 nM | GI50 [10]: 39.5 nM | GI50 [11]: 41.7 nM | GI50 [12]: < 10 nM | GI50 [13]: 28.2 nM | GI50 [14]: 168 nM | GI50 [15]: < 10 nM | GI50 [16]: 45 nM | GI50 [17]: 1620 nM | GI50 [18]: 64.6 nM | GI50 [19]: 1820 nM | GI50 [20]: 217 nM | GI50 [21]: < 10 nM | GI50 [22]: 97.7 nM | GI50 [23]: < 10 nM | GI50 [24]: 11.9 nM | GI50 [25]: 36.8 nM | GI50 [26]: 170 nM | GI50 [27]: 1220 nM | GI50 [28]: 166 nM | GI50 [29]: 35.1 nM | GI50 [30]: 25.7 nM | GI50 [31]: < 10 nM | GI50 [32]: 54.6 nM | GI50 [33]: 46.2 nM | GI50 [34]: 28.5 nM | GI50 [35]: < 10 nM | GI50 [36]: < 10 nM | GI50 [37]: < 10 nM | GI50 [38]: 961 nM | GI50 [39]: 10.9 nM | GI50 [40]: < 10 nM
